In article PMC3448795 (Biochemistry, 2012):
Where two headings read alike, the source gives them in different places. Peptide text beside a SMILES is read from it.

Tests used:
human S100B [1] = target: T1, human S100B (Homo sapiens, UniProt P04271); assay: Isothermal titration calorimetry; format: binding
T1 sequence (P04271 2-92 limits assumed): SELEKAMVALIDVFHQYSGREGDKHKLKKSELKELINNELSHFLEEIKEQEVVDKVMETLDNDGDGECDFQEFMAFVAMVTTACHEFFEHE

human S100B [2] = target: T1, human S100B; assay: NMR 1H-15N HSQC titration with LineShapeKin line shape analysis; format: binding; settings: for Kon (Table 3) / Kon (Table 4) / Kon (Table 2): low salt; for Kon (Table 2): Kd from ITC
[3] = calculated from Kd and Koff of Table 3
[4] = calculated from Kd and Koff of Table 4
[5] = calculated from Kd and Koff, 35°C

Row | Kd (human S100B [1]) | Kon (Table 3) (human S100B [2]; [3]) | Kon (Table 4) (human S100B [2]; [4]) | Kon (Table 2) (human S100B [2]; [5]) | kon (human S100B [2]; read-out: Kon (text, Table 2 analysis)) | Kon, first peptide binding event (human S100B [2]; bounds from simulated Koff and ITC Kd1) | Kon, second peptide binding event (human S100B [2]; bounds from simulated Koff and ITC Kd2) | ΔCp, exp, high salt (human S100B [1]; slope of ΔHcal versus temperature, ITC, buffer plus 120 mM NaCl) | Kd (human S100B [2]; Kd, App (Table 4), high salt, LineShapeKin, NMR only, 35°C, from 2D matrix) | Kon (Table 3), high salt (human S100B [2]; calculated from Kd and Koff of Table 3, high salt) | Kon (Table 4), high salt (human S100B [2]; calculated from Kd and Koff of Table 4, high salt) | Kon (Table 2), high salt (human S100B [2]; calculated from Kd and Koff, 35°C, high salt) | koff (human S100B [2]; read-out: Koff (Table 3), high salt, LineShapeKin, NMR only, 35°C, high salt) | koff (human S100B [2]; read-out: Koff (Table 4), high salt, LineShapeKin, NMR only, 35°C, high salt, from 2D matrix) | kon (human S100B [2]; read-out: Kon (text, Table 3 analysis)) | SMILES
1 | 500 ± 200 nM | 160 ± 70 1×10^7 M^-1 s^-1 | 100 ± 40 1×10^7 M^-1 s^-1 | 30 ± 11 1×10^7 M^-1 s^-1 | 2.8e+08 M⁻¹ s⁻¹ |  |  |  |  |  |  |  |  |  |  | CC(=O)N[C@@H](CCC(=O)O)C(=O)N[C@H](C(=O)N[C@@H](CC(C)C)C(=O)N[C@H](C(=O)N[C@@H](CCCNC(=N)N)C(=O)N1CCC[C@H]1C(=O)N[C@@H](CCCCN)C(=O)N1CCC[C@H]1C(=O)N[C@@H](CC(C)C)C(=O)N[C@@H](CC(C)C)C(=O)N[C@@H](CC(C)C)C(=O)N[C@@H](CCCCN)C(=O)N[C@@H](CC(C)C)C(=O)N[C@@H](CC(C)C)C(=O)N[C@@H](CCCCN)C(=O)N[C@@H](CO)C(=O)N[C@H](C(=O)NCC(=O)N[C@@H](C)C(=O)N[C@@H](Cc1ccc(O)cc1)C(N)=O)C(C)C)C(C)C)[C@@H](C)O [HDM2] (Ac-ETLVRPKPLLLKLLKSVGAY-NH2)
2 | 70 ± 30 nM | 3 ± 1 1×10^7 M^-1 s^-1 |  |  |  |  |  |  |  |  |  |  |  |  |  | CC[C@H](C)[C@H](NC(=O)[C@H](CCCCN)NC(=O)[C@H](CC(C)C)NC(=O)[C@H](CC(C)C)NC(=O)[C@@H]1CCCN1C(=O)[C@H](CC(C)C)NC(=O)[C@H](CCCCN)NC(=O)[C@@H]1CCCN1C(=O)[C@H](CCCNC(=N)N)NC(=O)[C@@H](NC(=O)[C@H](CCC(N)=O)NC(=O)[C@H](CC(N)=O)NC(C)=O)C(C)C)C(=O)N[C@@H](CC(C)C)C(=O)N[C@@H](Cc1c[nH]cn1)C(=O)N[C@@H](C)C(=O)N[C@@H](C)C(=O)NCC(=O)N[C@@H](C)C(=O)N[C@@H](CCC(N)=O)C(=O)N[C@@H](Cc1ccc(O)cc1)C(N)=O [HDM4] (Ac-NQVRPKLPLLKILHAAGAQY-NH2)
3 |  |  |  |  |  | 13-63 1×10^7 M^-1 s^-1 | 1-10 1×10^7 M^-1 s^-1 |  |  |  |  |  |  |  |  | CC(=O)N[C@@H](CCCCN)C(=O)N[C@@H](CCCNC(=N)N)C(=O)N[C@@H](CC(C)C)C(=O)N[C@@H](CCCNC(=N)N)C(=O)N[C@@H](CCCNC(=N)N)C(=O)N[C@@H](CO)C(=O)N[C@@H](C)C(=O)N[C@@H](Cc1c[nH]cn1)C(=O)N[C@@H](C)C(=O)N[C@@H](CCCNC(=N)N)C(=O)N[C@@H](CCCCN)C(=O)N[C@@H](CCC(=O)O)C(=O)N[C@H](C(=O)N[C@@H](CCC(=O)O)C(=O)N[C@@H](Cc1ccccc1)C(=O)N[C@@H](CC(C)C)C(=O)N[C@@H](CCCNC(=N)N)C(=O)N[C@@H](CC(C)C)C(=O)N[C@@H](CCCCN)C(=O)N[C@@H](CCCNC(=N)N)C(=O)N[C@H](C(=O)N[C@@H](CCCNC(=N)N)C(=O)N[C@@H](CC(C)C)C(=O)NCC(=O)N[C@@H](CC(C)C)C(=O)N[C@@H](CCC(=O)O)C(=O)N[C@@H](Cc1ccc(O)cc1)C(N)=O)[C@@H](C)O)[C@@H](C)O [NDR] (Ac-KRLRRSAHARKETEFLRLKRTRLGLEY-NH2)
4 | 2000 ± 1000 nM | 80 ± 30 1×10^7 M^-1 s^-1 | 100 ± 40 1×10^7 M^-1 s^-1 | 40 ± 16 1×10^7 M^-1 s^-1 |  |  |  | -1.2 ± 0.3 kJ·mol^-1 K^-1 | 10 ± 2 µM | 7.5 ± 1.5 1×10^7 M^-1 s^-1 | 10 ± 2 1×10^7 M^-1 s^-1 | 3 ± 1 1×10^7 M^-1 s^-1 | 750 ± 150 s⁻¹ | 1000 ± 200 s⁻¹ | 8e+08 M⁻¹ s⁻¹ | CSCC[C@H](NC(=O)[C@H](CC(C)C)NC(=O)[C@H](CCCCN)NC(=O)[C@H](CCCCN)NC(=O)[C@H](Cc1c[nH]cn1)NC(=O)[C@H](CCCNC(=N)N)NC(=O)[C@H](CO)NC(=O)[C@@H](NC(=O)[C@H](CO)NC(=O)[C@H](CCC(N)=O)NC(=O)CNC(=O)[C@H](CCCCN)NC(=O)[C@H](CCCCN)NC(=O)[C@H](CO)NC(=O)[C@H](CCCCN)NC(=O)[C@H](CC(C)C)NC(=O)[C@H](Cc1c[nH]cn1)NC(=O)[C@H](CO)NC(=O)[C@H](Cc1ccc(O)cc1)NC(C)=O)[C@@H](C)O)C(=O)N[C@@H](Cc1ccccc1)C(=O)N[C@@H](CCCCN)C(=O)N[C@H](C(=O)N[C@@H](CCC(=O)O)C(N)=O)[C@@H](C)O [p53]
